Data: paper PMC11435438, “Cyclin-Dependent Kinase 8 Represents a Positive Regulator of Cytomegalovirus Replication and a Novel Host Target for Antiviral Strategies” (Pharmaceutics, 2024)

Columns and labels:
HCMV AD169-GFP [1] = assay: microbe, parasite or virus in culture; assay type: cell-based, human cytomegalovirus
Description: (§1) (i.e., 1 × TCID25/7d). Immediately after virus adsorption, the cells were treated with antiviral compounds or solvent control (DMSO). Infections were performed in biological quadruplicates, or as indicated for individual experiments. The cells were fixed by the addition of 150 µL 10% formalin/well 7 d p.i. (Merlin-GFP 14 d p.i.), and washed with PBS. For GFP or YFP quantitation, the Victor X4 microplate reader (PerkinElmer, Waltham, MA, USA) was primarily used, or as a very sensitive alternative, the ImageXpress® Pico device (Molecular Devices LLC, San Jose, CA, USA). Mean EC50 values of antiviral efficacy were calculated on the basis of three experimental replicates or as indicated (measurement of fluorescence values in quadruplicate), and percentage values were provided relative to the solvent control (DMSO).

HCMV TB40-YFP = HCMV TB40-YFP replication assay in HFFs; assay type: cell-based, human cytomegalovirus; settings: Human betaherpesvirus 5, HFF, read-out: EC50 TB40-YFP
Description: as §1

HCMV AD169-GFP [2] = assay: HCMV AD169-GFP replication assay in U373 cells; assay type: cell-based, human cytomegalovirus; settings: Human betaherpesvirus 5, AD169, U373 MG, read-out: EC50 AD169-GFP
Description: as §1

HSV-1 166v VP22-GFP = assay: HSV-1 replication assay in HFFs; assay type: cell-based, herpes simplex virus type 1; settings: Human alphaherpesvirus 1, read-out: EC50 HSV-1
Description: (§2) Primary human foreskin fibroblasts (HFFs; obtained from clinical samples at Children’s Hospital in Erlangen, Germany), guinea pig embryonic fibroblasts (GPEFs; generously provided by Mark R. Schleiss from the University of Minnesota in Minneapolis, MN, USA), and rat embryonic fibroblasts were cultivated in Eagle’s Minimal Essential Medium (MEM) supplemented with 1 × GlutaMAX™ (both from Thermo Fisher Scientific, Waltham, MA, USA), 10 µg/mL gentamicin, and 10% fetal bovine serum (FBS; Capricorn, Ebsdorfergrund, Germany). Human glioblastoma–astrocytoma cell line (U373) and mouse embryonic fibroblasts (MEFs), both obtained from ATCC (Manassas, VA, USA), and Vero cell sublineage 76 [26], were cultivated in Dulbecco’s modified Eagle’s medium (DMEM) supplemented with 1 × GlutaMAX™, 10 µg/mL gentamicin, and 10% fetal bovine serum. All cultured cells were maintained under the conditions of 37 °C temperature, 5% CO2, and 80% humidity. The regular monitoring for the absence of mycoplasma contamination was conducted using Lonza™ Mycoalert™ (Thermo Fisher Scientific, Waltham, MA, USA). Cultured cell-based viral replication assays were performed by the use of the HCMV strain AD169 (variant U.K.), the recombinant HCMVs AD169-GFP expressing green fluorescent protein [27], TB40 IE2-YFP and TB40-FLuc expressing an IE2-YFP fusion protein or firefly luciferase (FLuc), and Merlin-GFP [31]. […]
(§3) A variety of antiherpesviral and non-herpesviral drug activities were assessed by the cell culture-based viral replication systems, as described elsewhere. […] After incubation at 37 °C for 3 days, iSLK.219 cells were fixed with 10% formalin, washed with PBS, and used for a quantitation of RFP reporter signal by PicoMD counting (ImageXpress® Pico device, Molecular Devices LLC, San Jose, CA, USA). […]

VZV Oka-GFP = assay: VZV replication assay in HFFs; assay type: cell-based, varicella zoster virus; settings: Human alphaherpesvirus 3, read-out: EC50 VZV
Description: as §2, §3

HHV-6A-GFP = assay: HHV-6A replication assay in J-Jhan cells; assay type: cell-based, human herpesvirus type 6A; settings: Homo sapiens, read-out: EC50 HHV-6A
Description: as §2, §3

KSHV rKSHV.219-GFP = assay: KSHV lytic replication assay in iSLK.219 cells; assay type: cell-based, Kaposi's sarcoma-associated herpesvirus; settings: Human gammaherpesvirus 8, read-out: EC50 KSHV
Description: as §2, §3

MHV-68-Luc = assay: MHV-68 replication assay in Vero cells; assay type: cell-based, murine herpesvirus 68; settings: Murine herpesvirus, read-out: EC50 MHV-68
Description: as §2, §3

[3] = test system: HAdV species C5 DBP-mneongreen; assay: HAdV replication assay in A549 cells; assay type: cell-based; settings: Human adenovirus sp., A549, read-out: EC50 HAdV
Description: as §2, §3

[4] = Human betaherpesvirus 5, AD169, HFF, read-out: EC50 AD169-GFP
[5] = Human betaherpesvirus 5, AD169, read-out: EC50 HCMV

SMILES	EC50 (HCMV AD169-GFP [1]; [4]) [nM]	EC50 (HCMV AD169-GFP [1]; [5]) [nM]	EC50 (HCMV TB40-YFP) [nM]	EC50 (HCMV AD169-GFP [2]) [nM]	EC50 (HSV-1 166v VP22-GFP) [µM]	EC50 (VZV Oka-GFP) [µM]	EC50 (HHV-6A-GFP) [µM]	EC50 (KSHV rKSHV.219-GFP) [nM]	EC50 (MHV-68-Luc) [nM]	EC50 [3] [nM]
Cn1ncc2cc(-c3cnc(N)c(Cl)c3N3CCC4(CCNC4=O)CC3)ccc21 [CCT-151921]	3.9 ± 2	3.9 ± 2	10 ± 6.33	16.3 ± 7.13	> 50	28 ± 9	39 ± 21	300	22 ± 19	30 ± 30
Cc1n[nH]c2ncc(C(=O)N3CCC[C@H]3c3ccc(Cl)cc3)cc12 [MSC-2530818]	1.21 ± 0.77	1.21 ± 0.77	4.97 ± 3.3	18.5 ± 11.2	42.3 ± 4.9	> 50	> 50	> 40000	2.5 ± 3	340 ± 260
CN(C)C(=O)Cn1cc(-c2ccc(-c3cncc4ccccc34)cc2)cn1 [BI-1347]	0.93 ± 0.67	0.93 ± 0.67	2.83 ± 2.3	10.8 ± 5.73	> 50	26 ± 10	> 50	310 ± 610	0.8 ± 1	50 ± 110
